Reference: patent publication US10005758B2, “Process for the preparation of 3-(3-chloro-1H-pyrazol-1-yl)pyridine” (Dow AgroSciences LLC, priority 2014, dated 2018)

Tests used:
[1] = tested on: Sweetpotato Whitefly Crawler (Bemisia tabaci) (BEMITA); assay: Bioassay on Sweetpotato Whitefly Crawler, foliar spray on infested cotton plants; assay type: in vivo; details: 200 ppm foliar spray on cotton, live nymphs counted after 8-9 days, read-out: BEMITA rating (% Mortality; Abbott corrected % control)
Description: Example B Bioassays on Sweetpotato Whitefly Crawler (Bemisia tabaci) (BEMITA.)
Cotton plants grown in 3-inch pots, with 1 small (3-5 cm) true leaf, were used at test substrate. The plants were placed in a room with whitely adults. Adults were allowed to deposit eggs for 2-3 days. After a 2-3 day egg-laying period, plants were taken from the adult whitefly room. Adults were blown off leaves using a hand-held Devilbliss sprayer (23 psi). Plants with egg infestation (100-300 eggs per plant) were placed in a holding room for 5-6 days at 82° F. and 50% RH for egg hatch and crawler stage to develop. Four cotton plants were used for each treatment. Compounds (2 mg) were dissolved in 1 mL of acetone solvent, forming stock solutions of 2000 ppm. The stock solutions were diluted 10× with 0.025% Tween 20 in water to obtain a test solution at 200 ppm. A hand-held Devilbliss sprayer was used for spraying a solution to both sides of cotton leaf until runoff. Reference plants (solvent check) were sprayed with the diluent only. Treated plants were held in a holding room for 8-9 days at approximately 82° F. and 50% RH prior to grading. Evaluation was conducted by counting the number of live nymphs per plant under a microscope.

[2] = tested on: Green Peach Aphid (Myzus persicae) (MYZUPE); assay: Bioassay on Green Peach Aphid (GPA), foliar spray on infested cabbage seedlings; assay type: in vivo; details: 72 h, 200 ppm foliar spray on cabbage, live aphids counted after three days, read-out: MYZUPE rating (% Mortality; Abbott corrected % control)
Protocol: Example A Bioassays on Green Peach Aphid (“GPA”) (Myzus persicae) (MYZUPE.)
Several molecules disclosed herein were tested against GPA using procedures described below.
Cabbage seedling grown in 3-in pots, with 2-3 small (3-5 cm) true leaves, were used as test substrate. The seedlings were infested with […] (wingless adult and nymph stages) one day prior to chemical application. Four pots with individual seedlings were used for each treatment. Test compounds (2 mg) were dissolved in 2 mL of acetone/MeOH (1:1) solvent, forming stock solutions of 1000 ppm test compound. The stock solutions were diluted 5× with 0.025% Tween 20 in water to obtain the solution at 200 ppm test compound. A hand-held aspirator-type sprayer was used for spraying a solution to both sides of the cabbage leaves until runoff. Reference plants (solvent check) were sprayed with the diluent only containing […] acetone/MeOH (1:1) solvent. Treated plants were held in a holding room for three days at approximately 25° C. and ambient relative humidity (RH) prior to grading. Evaluation was conducted by counting the number of live aphids per plant under a microscope. Percent Control was measured by using Abbott's correction formula (W. S. Abbott, “A Method of Computing the Effectiveness of an Insecticide” J. Econ. Entomol 18 (1925), pp. 265-267) as follows. Corrected % Control=100*(X−Y)/X […]

SMILES: CCOC(=O)C1CC(=O)NN1c1cccnc1 (stereo not shown) [Example Compound 10a, Ethyl 5-oxo-2-(pyridin-3-yl)pyrazolidine-3-carboxylate]
- mortality at 200 ppm [1]: 0 to 80%
- mortality at 200 ppm [2]: 0 to 80%

SMILES: CCOC(=O)C1CC(Cl)=NN1c1cccnc1 (stereo not shown) [Example Compound 10b, Ethyl 3-chloro-1-(pyridin-3-yl)-4,5-dihydro-1H-pyrazole-5-carboxylate]
- mortality at 200 ppm [1]: 0 to 80%
- mortality at 200 ppm [2]: 0 to 80%
